Reference: PubChem BioAssay (NCI)
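Grown in 96-well plates, cells were treated for 48 hours with each compound at five concentrations. Insufficient inhibition: endpoint recorded as highest concentration tested. Abbreviation: GI50, concentration required for 50% inhibition of growth. At the TGI there is no net growth.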

Tests used:
Assay in all cases: growth of human tumour cells (NCI), 48 h
HCT-15 colon = test system: HCT-15 colon
HCT-116 colon = test system: HCT-116 colon
MALME-3M melanoma = test system: MALME-3M melanoma
786-0 renal = test system: 786-0 renal
A498 renal = test system: A498 renal
SNB-75 CNS = test system: SNB-75 CNS
HT29 colon = test system: HT29 colon
TK-10 renal = test system: TK-10 renal
LOX IMVI melanoma = test system: LOX IMVI melanoma
HL-60(TB) leukemia = test system: HL-60(TB) leukemia

| Structure (SMILES) | TGI (HCT-15 colon) | TGI (HCT-116 colon) | TGI (MALME-3M melanoma) | TGI (786-0 renal) | TGI (A498 renal) | TGI (SNB-75 CNS) | TGI (HT29 colon) | TGI (TK-10 renal) | TGI (LOX IMVI melanoma) | GI50 (HCT-15 colon) | GI50 (HCT-116 colon) | GI50 (MALME-3M melanoma) | GI50 (786-0 renal) | GI50 (A498 renal) | GI50 (SNB-75 CNS) | GI50 (HT29 colon) | GI50 (TK-10 renal) | GI50 (LOX IMVI melanoma) | TGI (HL-60(TB) leukemia) | GI50 (HL-60(TB) leukemia) |
| --- | --- | --- | --- | --- | --- | --- | --- | --- | --- | --- | --- | --- | --- | --- | --- | --- | --- | --- | --- | --- |
| Cc1cc2c(c(=O)o1)C1=S(SC(c3ccccc3)=C1)S2 (configuration not stated) | > 100 µM | 60.6 µM | 86.7 µM | 28.8 µM | 34 µM | 94.5 µM | > 100 µM | 87.4 µM | > 100 µM |  |  |  |  |  |  |  |  |  |  |  |
| C=C1C(=O)O[C@H]2[C@H]1CC/C(COC(=O)NCc1c[nH]c3ccc(F)cc13)=C\CC[C@@]1(C)O[C@@H]21 | 2.55 µM | 2.04 µM | 3.32 µM | 2.43 µM | 12.9 µM | 2.76 µM | 2.58 µM | 3 µM | 2.28 µM | 1.04 µM | 0.703 µM | 1.66 µM | 0.899 µM | 3.46 µM | 1.33 µM | 1.07 µM | 1.58 µM | 0.952 µM |  |  |
| CCOC(=O)C(CCCNC(=O)OC(C)(C)C)N(Cc1ccc(OC)cc1OC)C(=O)CC(=O)CP(=O)(OCC)OCC (configuration not stated) |  | > 100 µM | > 100 µM | > 100 µM | > 100 µM | > 100 µM | > 100 µM | > 100 µM | > 100 µM |  |  |  |  |  |  |  |  |  | > 100 µM |  |
| CC(=O)[CH-]C(C)=O.CC(=O)[CH-]C(C)=O.CC(=O)[CH-]C(C)=O.[Ga+3] | > 100 µM | > 100 µM | > 100 µM | > 100 µM |  | > 100 µM |  | > 100 µM | > 100 µM | > 100 µM | > 100 µM | > 100 µM | > 100 µM |  | > 100 µM |  | > 100 µM | 32.7 µM |  |  |
| O=C1C(Nc2cccc(O)c2)=C(Sc2ccccc2)C(=O)N1Cc1ccccc1 | 38.8 µM | 21.5 µM | 9.97 µM | 39.4 µM |  |  | 29.8 µM | 16.8 µM | 39.4 µM | 12.4 µM | 9.87 µM | 1.74 µM | 20.7 µM |  |  | 14.3 µM |  | 13 µM |  |  |
| CC1CCC2(C)C(CC=C(C=O)C2(O)C=O)C12CO2 (configuration not stated) | 5.95 µM | 6.65 µM | 8.74 µM | 5.83 µM | 20.1 µM |  | 8.03 µM | 5.19 µM | 7.47 µM |  |  |  |  |  |  |  |  |  | 2.92 µM |  |
| N#CNC1=NC(N)C(c2nc3ccccc3[nH]2)=C(CCCC(=O)Nc2cccc([N+](=O)[O-])c2)N1 (configuration not stated) | > 100 µM |  | > 100 µM | > 100 µM |  | > 100 µM | > 100 µM | > 100 µM | > 100 µM |  |  |  |  |  |  |  |  |  | > 100 µM |  |
| C=CC[N+]1(CC)CCN=C1CCCCCCCCCCCCCCCCC (configuration not stated) |  | 1.15 µM |  | 2.11 µM | 2.86 µM |  | 1.24 µM | 2.44 µM |  |  | 0.294 µM |  | 0.788 µM | 1.44 µM |  | 0.375 µM | 1.1 µM |  | 2.07 µM | 0.562 µM |
| Clc1ccc([I+]c2ccc(Cl)cc2Cl)c(Cl)c1 | 5.25 µM | 3.67 µM | 3.61 µM | 4.36 µM | 6.98 µM | 5.39 µM | 3.26 µM |  | 3.36 µM | 2.06 µM | 1.85 µM | 1.73 µM | 2.09 µM | 1.76 µM | 1.88 µM | 1.78 µM |  | 1.77 µM | 4.58 µM | 2.09 µM |
| CCOC(=O)C(Cc1ccc(N(CCCl)CCCl)cc1)NC(=O)C(Cc1ccccc1)NC(C)=O (configuration not stated) | > 1 µM | > 0.388 µM |  | > 0.399 µM | > 0.414 µM | > 1 µM | > 0.219 µM | > 0.325 µM | > 0.386 µM |  |  |  |  |  |  |  |  |  | > 0.264 µM |  |
| CN(C)CCCn1c2c(c3cc4c(cc3c1=O)OCO4)C(=O)c1ccccc1-2 | 4.35 µM | 0.384 µM |  | 1.96 µM |  | 37.4 µM | > 100 µM | 17.9 µM | 0.557 µM | < 0.0275 µM |  |  | 0.0131 µM |  | 5.89 µM | 0.0472 µM | 3.42 µM | 0.0635 µM | 20.4 µM | 3.35 µM |
| Cc1ccc(S(=O)(=O)NC(=O)OC23COCN2COC3)cc1 | > 100 µM | > 100 µM | > 100 µM | > 100 µM | > 100 µM | > 100 µM | > 100 µM | > 100 µM | > 100 µM |  |  |  |  |  |  |  |  |  |  |  |
| C=CC(=O)N[C@@H](/C=C/C(=O)OCC)Cc1ccc(-c2cc(Cl)cc(Cl)c2)cc1 | > 100 µM | 34.2 µM | 34.1 µM | 91 µM |  | 70 µM | 41.9 µM | 97.7 µM | 35.6 µM | 8.01 µM | 5.29 µM | 10.9 µM | 20.2 µM |  | 10.8 µM | 12.8 µM | 21.9 µM | 14.2 µM | 60 µM | 8.22 µM |
| O=C(c1ccco1)c1c(C(F)(F)F)n([O-])c2cc(F)c(F)cc2[n+]1=O | 0.149 µM | 0.386 µM | 4.21 µM | 0.137 µM | 17.3 µM |  | > 100 µM | 1.02 µM | 0.459 µM | < 0.0464 µM | 0.149 µM | 2.06 µM | 0.0512 µM | 4.88 µM |  | 0.609 µM | 0.204 µM |  | 2.74 µM | 0.4 µM |
| C[P+]1(c2ccccc2)CCCCC1 | > 100 µM |  | > 100 µM | > 100 µM | > 100 µM | > 100 µM | > 100 µM | > 100 µM | > 100 µM |  |  |  |  |  |  |  |  |  |  |  |
| Cn1nc(-c2ccccc2)c(C(=O)/C=C/c2ccc(Cl)cc2)c(N2CCOCC2)c1=O | 13.4 µM | 3.96 µM |  | 12.3 µM | 15.8 µM |  | 15.1 µM | 25.8 µM | 61.7 µM |  |  |  |  |  |  |  |  |  | 4.38 µM |  |
| COc1ccc(OC)c(Cc2cnc3nc(N)nc(N)c3c2C)c1 | 11.4 µM | 30.4 µM | 13.7 µM | 30.2 µM |  | 21.3 µM | 20 µM | > 84.7 µM | 25.6 µM |  |  |  |  |  |  |  |  |  | 18.7 µM |  |
| Cc1cc(O)c2c3c(ccc2c1)C(=O)c1c(O)cccc1C3=O | > 100 µM | > 100 µM | 0.0846 µM | > 100 µM | > 100 µM | > 74.7 µM | > 44.9 µM | > 100 µM | > 100 µM |  |  |  |  |  |  |  |  |  |  |  |
